Data on 11 compounds can be found in patent US20090118314A1, “TUMOR SUPPRESSOR” (JAPAN AS REPRESENTED BY DIRECTOR GENERAL OF AGENCY CENTER, priority 2006, published 2009).

One test concerns Min mice. The test is described as follows: Cancer suppression test (intestinal polyp development) in Min mice. Type of test: in vivo. The note with it: male Min mice, 100 ppm in feed, sacrificed at 15 weeks old. An excerpt: That is to say, the inventors used, as a test system, familial adenomatous polyposis (FAP) model mice (Apc gene hetero-deficient mice) belonging to a high risk group of large intestinal cancer. These model mice have two characteristics. […] Thus, this mouse can be used as an experimental animal model useful for examining the relationship between a hyperlipidemia condition and large intestinal cancer. In this test, based on the fact that expression of PAI-1 was increased in the polyps of FAP patients and that expression of PAI-1 was induced by triglyceride, the action of suppressing the development of intestinal polyps of a PAI-1-inhibiting compound was evaluated using Min mice that were one type of Apc gene-deficient mice.
5-week-old male Min mice (CLEA Japan, Inc.) were purchased. After giving a basic feed (AIN-76A) to the mice for 1 week, 100 ppm of a test substance was mixed into the feed, and the mixed feed was then given to the mice. On the other hand, in the case of wild-type mice also, the same amount of the test substance was mixed into the feed, and the mixed feed was then given to the wild-type mice. The body weight and the feed intake were measured every week. The mice were sacrificed under anesthesia, when they were 15 weeks old. Then, the weights of main organs (spleen and heart) were measured. Small intestine and large intestine were washed and were then excised in a longitudinal direction, followed by fixing with formalin. The number of intestinal polyps in the small intestine and large intestine were counted and the size thereof were measured under a stereoscopic microscope.

The next test addresses PAI-1 (Homo sapiens, UniProt P05121). Kind of test: PAI-1 inhibitory activity using synthetic substrate S-2288. The test is classed as biochemical. The text has this: PAI-1 inhibitory activity can be measured using a synthetic substrate S-2288 according to the methods described in International Publication WO04/011442 pamphlet, International Publication WO04/10996 pamphlet, JP-A-2004-250401, etc.

pIC50: −log10 of the molar value.

PAI-1, sequence (P05121 24-402, species assumed): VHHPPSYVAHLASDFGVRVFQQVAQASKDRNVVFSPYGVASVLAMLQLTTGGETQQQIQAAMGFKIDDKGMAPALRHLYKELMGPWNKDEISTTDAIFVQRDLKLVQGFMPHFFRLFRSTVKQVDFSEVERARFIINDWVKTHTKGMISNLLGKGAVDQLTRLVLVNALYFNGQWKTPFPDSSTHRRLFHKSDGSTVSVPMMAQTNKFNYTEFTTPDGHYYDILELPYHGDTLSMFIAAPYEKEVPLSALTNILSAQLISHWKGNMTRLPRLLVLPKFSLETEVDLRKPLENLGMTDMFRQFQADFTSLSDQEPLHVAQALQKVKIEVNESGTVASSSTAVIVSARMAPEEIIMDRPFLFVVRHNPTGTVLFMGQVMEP

What is called pIC50 is −log10 of the IC50, conventionally taken in molar units. High values mean a low IC50, low ones a high IC50. For `CC(C)(C)c1ccc2oc(-c3ccc4cc(OCCCCCC(C(=O)O)C(=O)O)ccc4c3)nc2c1` [Compound No. 20, [5-[[6-[5-(1,1-dimethylethyl)-2-benzoxazolyl]-2-naphthalenyl]oxy]pentyl]propanedioic acid], in the test on Min mice, the “development of intestinal polyps in the proximal portion of small intestine” value is recorded as “suppressed particularly strongly”, the “distribution of the polyp size” value is recorded as “a decrease in the size was observed overall”, the “polyps with a diameter size of 1 mm or less” value is reported as “significantly decreased” and the “weight of heart (indicator of anemia caused by bleeding associated with intestinal polyps)” value was “significantly reduced”. The “weight of spleen (indicator of anemia caused by bleeding associated with intestinal polyps)” value with Min mice is “significantly reduced”. Further, in the test with Min mice (small and large intestine), the “total number of polyps per mouse, decreased to” value is given as “approximately 66%”. The negative logarithm of the IC50 (pIC50) against PAI-1 is 6.36.
For `O=C(O)C(CCCCCOc1ccc2cc(-c3nc(-c4ccccc4)c(-c4ccccc4)o3)ccc2c1)C(=O)O` [compound 6, [5-[[6-(4,5-diphenyl-2-oxazolyl)-2-naphthalenyl]oxy]pentyl]propanedioic acid], the pIC50 on PAI-1 is 6.03.
`Cc1ccc(-c2nc(-c3ccc4cc(OCCCCCC(C(=O)O)C(=O)O)ccc4c3)oc2-c2ccc(C)cc2)cc1` [compound 7, [5-[[6-[4,5-bis(4-methylphenyl)-2-oxazolyl]-2-naphthalenyl]oxy]pentyl]propanedioic acid] gave a pIC50 against PAI-1 of 6.23.
At PAI-1, `O=C(O)C(CCCOc1ccc2cc(-c3nc4cc(-c5ccccc5)ccc4o3)ccc2c1)C(=O)O` [compound 13, [3-[[6-(5-phenyl-2-benzoxazolyl)-2-naphthalenyl]oxy]propyl]propanedioic acid] showed a pIC50 of 6.27.
As for `O=C(O)C(CCCCCOc1ccc2cc(-c3nc4ccc(OCC5CCCCC5)cc4o3)ccc2c1)C(=O)O` [compound 23, [5-[[6-[6-(cyclohexylmethoxy)-2-benzoxazolyl]-2-naphthalenyl]oxy]pentyl]propanedioic acid], the pIC50 against PAI-1 was 6.41.
On to `O=C(O)C(CCCCCOc1ccc2cc(-c3nc4ccc(OCc5ccccc5)cc4o3)ccc2c1)C(=O)O` [compound 24, [5-[[6-[6-(phenylmethoxy)-2-benzoxazolyl]-2-naphthalenyl]oxy]pentyl]propanedioic acid], for which the negative logarithm of the IC50 (pIC50) on PAI-1 was 6.27.
On the same count and under the same terms, next, `COc1ccc(-c2cc(OCc3ccccc3F)nc(-c3ccc4cc(OCCCC(C(=O)O)C(=O)O)ccc4c3)n2)cc1` [compound 43, [3-[[6-[4-[(2-fluorophenyl)methoxy]-6-(4-methoxyphenyl)-2-pyrimidinyl]-2-naphthalenyl]oxy]propyl]propanedioic acid]: 6.07; `O=C(O)C(CCCCCOc1ccc2cc(-c3nc(OCc4ccccc4)cc(-c4ccccc4)n3)ccc2c1)C(=O)O` [compound 47, [5-[[6-[4-phenyl-6-(phenylmethoxy)-2-pyrimidinyl]-2-naphthalenyl]oxy]pentyl]propanedioic acid]: 6.46; `CC(C)(C)c1cc(OCC2CCCCC2)nc(-c2ccc3cc(OCCCCCC(C(=O)O)C(=O)O)ccc3c2)n1` [compound 48, [5-[[6-[4-cyclohexylmethoxy-6-(1,1-dimethylethyl)-2-pyrimidinyl]-2-naphthalenyl]oxy]pentyl]propanedioic acid]: 6.49.
As for `CC(C)(C)c1cc(OCc2ccc(F)cc2)nc(-c2ccc3cc(OCCCCCC(C(=O)O)C(=O)O)ccc3c2)n1` [compound 49, [5-[[6-[4-(1,1-dimethylethyl)-6-[(4-fluorophenyl)methoxy]-2-pyrimidinyl]-2-naphthalenyl]oxy]pentyl]propanedioic acid], the pIC50 at PAI-1 was 6.54.
As to `CC(C)(C)c1cc(OCc2ccccc2Cl)nc(-c2ccc3cc(OCCCCCC(C(=O)O)C(=O)O)ccc3c2)n1` [compound 50, [5-[[6-[4-[(2-chlorophenyl)methoxy]-6-(1,1-dimethylethyl)-2-pyrimidinyl]-2-naphthalenyl]oxy]pentyl]propanedioic acid], the pIC50 against PAI-1 was 6.66.
